The test system of the assay is Human immunodeficiency virus 1. Briefly: Inhibition of recombinant HIV1 protease at 100 ug/ml.

Turning to H-LLEYVF-OH, the inhibition amounted to 52.3%.

As to H-LLEYVY-OH, the inhibition came to 58.6%.

On to `CC(=O)N[C@H](C(=O)N[C@H](C(=O)N[C@@H](CC(C)C)[C@@H](O)CC(=O)N[C@@H](C)C(=O)N[C@@H](CC(C)C)[C@@H](O)CC(=O)O)C(C)C)C(C)C`, for which the inhibition is 98.5%.

On to H-LLEYVW-OH, for which the inhibition amounted to 64.9%.

Turning to H-LLEYVM-OH, the inhibition came to 47.2%.
